# “Also recorded” adds a separate entry of the source.
# Assays:
# Mcl-1 [1] = molecular target: T1, Mcl-1 (Homo sapiens, UniProt Q07820); test: HSQC NMR spectroscopy of binding to Mcl-1 protein; conditions: compound in complex with Mcl-1
# From the text: [drawing 85] with 5,6-difuran-2-yl-1,2,4-triazine core identified with high throughput screening (see, e.g., Du, Y., et al., Assay and drug development technologies 9, 382-393). […] The second furan ring has weak hydrophobic interaction with residues Phe 318 and Phe 319, which are located proximal to the conserved h4 pocket (FIG. 1). These two residues were identified that contribute to additional hydrophobic contacts with the staple of a reported stabilized α-helix (see, e.g., Stewart, M. L., et al., Nat Chem Biol 6, 595-601).
# [drawing 86] was de-novo designed (FIG. 1). In the 368, one furan ring was replaced with carboxylate moiety in order to improve the conserved hydrogen bond, the other furan ring was replaced with phenylsulfonamido and the side chain was changed to phenethylthio substituent in order to allow further modification for improving hydrophobic interactions.
# Target sequence in this assay (Q07820 whole entry): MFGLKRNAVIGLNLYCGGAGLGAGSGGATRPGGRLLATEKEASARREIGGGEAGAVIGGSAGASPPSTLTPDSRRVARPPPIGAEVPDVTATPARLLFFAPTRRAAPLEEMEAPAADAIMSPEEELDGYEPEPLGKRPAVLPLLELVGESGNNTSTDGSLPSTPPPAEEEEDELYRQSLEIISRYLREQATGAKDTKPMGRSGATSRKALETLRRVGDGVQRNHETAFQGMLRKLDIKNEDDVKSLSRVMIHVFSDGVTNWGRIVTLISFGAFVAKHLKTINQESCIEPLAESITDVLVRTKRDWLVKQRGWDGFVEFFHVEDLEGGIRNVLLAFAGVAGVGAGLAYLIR
# Mcl-1 [2] = molecular target: T1, Mcl-1; test: FP based binding assay to Mcl-1 (Bid BH3 peptide probe)
# Target sequence in this assay (Q07820 whole entry): as above
# Bcl-xL [3] = molecular target: T2, Bcl-xL (Homo sapiens, UniProt Q07817); test: Cell-free functional assay with purified mitochondria, Smac release, Bcl-xL; format: biochemical; conditions: concentrations as high as 9 μM
# From the text: To provide direct evidence that 483 and 487 also selectively antagonize Mcl-1 function, a cell-free functional assay was established using purified mitochondria, recombinant Mcl-1 and Bcl-xL proteins, and the BIM BH3 peptide which binds to both proteins with high affinities.
# Mcl-1 knockout MEFs = format: cell-based; conditions: 15 h
# Method: Cell viability was assessed using propidium iodide staining detected with flow cytometry. […] The percentage of dead cells was calculated using LIVE/DEAD fixable violet dead cell stain (VIVID) and detected with flow cytometry.
# Panc-1 cells = test: Cell growth inhibition of Panc-1 by MTT assay, ABT-263 with 483; format: cell-based
# From the text: FIG. 7: 483 synergizes with ABT-263 to kill Panc-1 cells.
# As expected, ABT-263 had little effect on this cell line (FIG. 7).
# [4] = molecular target: T3, Mcl-1/BAK protein-protein interactions (Homo sapiens, UniProt Q07820); test: Co-immunoprecipitation of Mcl-1 protein in Panc-1 cells; format: cell-based; conditions: different concentrations, Mcl-1 immunoprecipitation and Western blot
# T3 construct: endogenous in cells; host or cells: Panc-1 cells
# From the text: FIG. 8: 483LM disrupts the Mcl-1/BAK protein-protein interactions in Panc-1 cell line.
# Bcl-w = molecular target: T4, Bcl-w (Homo sapiens, UniProt Q92843); test: Binding selectivity, Bcl-w
# T4 sequence (Q92843 1-193): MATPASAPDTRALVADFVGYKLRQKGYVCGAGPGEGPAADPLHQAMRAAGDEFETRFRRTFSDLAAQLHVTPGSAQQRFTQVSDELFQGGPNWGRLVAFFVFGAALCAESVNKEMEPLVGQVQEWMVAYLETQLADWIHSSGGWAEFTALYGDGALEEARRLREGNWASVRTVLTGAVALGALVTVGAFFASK
# [5] = tested on: Eμ-myc lymphoma cells overexpressing Mcl-1; test: Cell death in Eμ-myc lymphoma cells overexpressing Mcl-1; format: cell-based, mouse; conditions: Eμ-myc lymphoma overexpressing Mcl-1, 15 h, VIVID stain, flow cytometry
# Method: (§1) FIG. 5A-B: A) 483 induces Bax/Bak and Mcl-1 dependent cell death. Mouse Embryonic Fibroblasts (MEFs) were treated for 15 h with 483 and ABT263. Cell viability was assessed using propidium iodide staining detected with flow cytometry. […] Cells were treated for 15 h with increasing concentrations of (A) 483 and (B) ABT263. […] The percentage of dead cells was calculated using LIVE/DEAD fixable violet dead cell stain (VIVID) and detected with flow cytometry. (*) is p<0.001.
# (§2) Wild-type, Bax/Bak double knockout and Mcl-1 knockout MEFs cells have been employed as models to establish the mechanism-based apoptosis and on-target activity (see, e.g., Lindsten, T., and Thompson, C. B. (2006) Cell death and differentiation 13, 1272-1276). […] The specificity of this class Mcl-1 inhibitors was further confirmed by using cell lines developed by retroviral transduction of lymphoma cells isolated from Eg-myc transgenic mice which survival depends on the expression of individual prosurvival protein.
# Bcl-xL [6] = molecular target: T2, Bcl-xL; test: Binding selectivity, Bcl-xL
# endogenous Mcl-1 protein = molecular target: T5, endogenous Mcl-1 protein (Homo sapiens, UniProt Q07820); test: Pull-down assay using biotin-labeled Noxa and 2LMP whole cell lysate; format: binding; conditions: Western blot with anti-Mcl-1 antibody
# T5 construct: endogenous in cells; host or cells: 2LMP human breast cancer cells (whole cell lysate)
# Method: FIG. 3: Mcl-1 inhibitors recognize and bind endogenous Mcl-1 protein. Biotin-labeled Noxa (BL-Noxa, […]) was incubated with whole cell lysates of 2LMP cells with or without tested Mcl-1 inhibitors and Bim BH3 peptide as a positive control, followed by incubation with precleared streptavidin agarose beads. Eluted beads were subjected to Western blot analysis with anti-Mcl-1 antibody.
# [7] = tested on: Bax/Bak double knockout MEFs; test: Cell viability in Bax/Bak double knockout MEFs; format: cell-based; conditions: 15 h
# Method: as §1, §2
# [8] = tested on: Eμ-myc lymphoma cells overexpressing Bcl-2; test: Cell death in Eμ-myc lymphoma cells overexpressing Bcl-2; format: cell-based, mouse; conditions: Eμ-myc lymphoma overexpressing Bcl-2, 15 h
# Method: as §1, §2
# Bcl-2 = Bcl-2 (Homo sapiens, UniProt P10415); test: Binding selectivity, Bcl-2
# wild-type MEFs = test: Cell viability in wild-type MEFs; format: cell-based, mouse; conditions: 15 h, propidium iodide staining, flow cytometry
# Method: as §1, §2
# Mcl-1 [9] = molecular target: T1, Mcl-1; conditions: cited from earlier work
# Target sequence in this assay (Q07820 whole entry, species assumed): as the sequence (Q07820 whole entry) above
# [10] = FP assay using Bid BH3 peptide as a probe
# T2 sequence (Q07817 whole entry, species assumed): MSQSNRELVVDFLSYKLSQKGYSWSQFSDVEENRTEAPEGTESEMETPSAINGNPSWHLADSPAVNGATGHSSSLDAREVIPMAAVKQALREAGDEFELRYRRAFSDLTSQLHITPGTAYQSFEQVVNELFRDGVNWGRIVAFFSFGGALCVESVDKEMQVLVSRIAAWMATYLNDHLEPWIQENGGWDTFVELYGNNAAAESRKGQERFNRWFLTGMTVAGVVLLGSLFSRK
# T3 sequence (Q07820 whole entry): as the sequence (Q07820 whole entry) above
# T5 sequence (Q07820 whole entry): as above
# Chain of Bcl-2 (P10415 whole entry, species assumed): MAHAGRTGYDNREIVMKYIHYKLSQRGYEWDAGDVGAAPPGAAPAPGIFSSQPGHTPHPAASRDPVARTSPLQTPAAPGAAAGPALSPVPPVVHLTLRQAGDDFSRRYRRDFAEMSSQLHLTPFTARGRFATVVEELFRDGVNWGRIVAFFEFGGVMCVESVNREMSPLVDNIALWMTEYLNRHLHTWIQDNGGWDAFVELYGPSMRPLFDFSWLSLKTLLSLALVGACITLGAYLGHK
smiles,measurement,setting,value
"O=C(CSc1nnc(-c2ccco2)c(-c2ccco2)n1)Nc1ccccc1 [Compound E238, reference compound]",chemical shift perturbations in HSQC NMR spectrum,Mcl-1 [1],concentration-dependent perturbations
same,Ki,Mcl-1 [2]; [10],2090 ± 180 nM
"CC(C)c1cc(NC(=O)c2ccc(Oc3ccc(F)cc3)cc2)c(C(=O)O)cc1-c1ccc(COc2cccc(C(F)(F)F)c2)cc1 [Compound 487, 4-(4-(4-fluorophenoxy)benzamido)-6-isopropyl-4′-((3-(trifluoromethyl)phenoxy)methyl)-[1,1′-biphenyl]-3-carboxylic acid]",Ki,"Mcl-1 [2]; Binding affinity of Mcl-1 inhibitors using FP based assay, Table 1",8 ± 2 nM
same,release of Smac in the Bcl-xL functional assay,Bcl-xL [3],fail to release Smac
"CC1(C)CCC(c2ccc(Cl)cc2)=C(CN2CCN(c3ccc(C(=O)NS(=O)(=O)c4ccc(N[C@H](CCN5CCOCC5)CSc5ccccc5)c(S(=O)(=O)C(F)(F)F)c4)cc3)CC2)C1 [ABT-263, reference compound]",cytotoxicity / growth-inhibitory activity,Mcl-1 knockout MEFs,increased growth-inhibitory activity
same,"effect on cell line, single agent","Panc-1 cells; Panc-1, 48 h",little effect
"O=C(O)c1cc(SCCc2ccccc2)ccc1NS(=O)(=O)c1ccccc1 [Compound 368, 5-(Phenethylthio)-2-(phenylsulfonamido)benzoic acid]",chemical shift perturbations in HSQC NMR spectrum,Mcl-1 [1],large chemical shift perturbations
same,Ki,Mcl-1 [2]; [10],490 ± 10 nM
"CC(C)c1cc(NC(=O)c2ccc(Oc3ccccc3)cc2)c(C(=O)O)cc1-c1ccc(COc2cccc(C(F)(F)F)c2)cc1 [Compound 483, 6-isopropyl-4-(4-phenoxybenzamido)-4′-((3-(trifluoromethyl)phenoxy)methyl)-[1,1′-biphenyl]-3-carboxylic acid]",cytotoxicity / growth-inhibitory activity,Mcl-1 knockout MEFs,didn't show cytotoxicity
same,disruption of Mcl-1/Bak protein-protein interactions,[4],dose-dependent disruption
same,disruption of Mcl-1/Bak protein-protein interactions,[4]; listed as 483LM,disrupts
same,Ki,Mcl-1 [2]; binding affinity to Mcl-1,7 ± 2 nM
same,Ki,Bcl-w,> 1000 nM
same,combination effect with ABT-263,"Panc-1 cells; Panc-1, 48 h",synergizes; also recorded: substantially shifted the dose-response curve
same,improvement of IC50 of cell growth inhibition of ABT-263,"Panc-1 cells; Panc-1, ABT-263 in the presence of 483, 48 h",more than 660 fold
same,cell death / sensitization,[5],led to sensitization; also recorded: selectively induces cell death
same,Ki,Bcl-xL [6],> 1000 nM
same,blocking of the binding of BL-Noxa to Mcl-1,endogenous Mcl-1 protein,dose-dependent blocked
same,release of Smac in the Bcl-xL functional assay,Bcl-xL [3],fail to release Smac
same,cytotoxicity,[7],didn't show cytotoxicity
same,effect on cells,[8],did not show effect
same,Ki,Bcl-2,> 1000 nM
same,cell death,wild-type MEFs,causes cell death
CN(C)CC[C@H](CSc1ccccc1)Nc1ccc(S(=O)(=O)NC(=O)c2ccc(N3CCN(Cc4ccccc4-c4ccc(Cl)cc4)CC3)cc2)cc1[N+](=O)[O-] [ABT-737],binding to Mcl-1,Mcl-1 [9],fails to bind

# From patent US9884841B2, “Small molecule inhibitors of Mcl-1 and uses thereof” (The Regents of the University of Michigan, priority 2015, dated 2018)
